Calls of active or inactive are those of the source.
Key:
[1] = biological target: T1, DNA repair and recombination protein RAD54-like (Homo sapiens, UniProt Q92698); assay: RAD54 Holliday junction migration blockers – biochemical, fluorescence, cherry-picked samples, dose series, confirmation (AID 651657); type: functional
T1 sequence (Q92698 whole entry): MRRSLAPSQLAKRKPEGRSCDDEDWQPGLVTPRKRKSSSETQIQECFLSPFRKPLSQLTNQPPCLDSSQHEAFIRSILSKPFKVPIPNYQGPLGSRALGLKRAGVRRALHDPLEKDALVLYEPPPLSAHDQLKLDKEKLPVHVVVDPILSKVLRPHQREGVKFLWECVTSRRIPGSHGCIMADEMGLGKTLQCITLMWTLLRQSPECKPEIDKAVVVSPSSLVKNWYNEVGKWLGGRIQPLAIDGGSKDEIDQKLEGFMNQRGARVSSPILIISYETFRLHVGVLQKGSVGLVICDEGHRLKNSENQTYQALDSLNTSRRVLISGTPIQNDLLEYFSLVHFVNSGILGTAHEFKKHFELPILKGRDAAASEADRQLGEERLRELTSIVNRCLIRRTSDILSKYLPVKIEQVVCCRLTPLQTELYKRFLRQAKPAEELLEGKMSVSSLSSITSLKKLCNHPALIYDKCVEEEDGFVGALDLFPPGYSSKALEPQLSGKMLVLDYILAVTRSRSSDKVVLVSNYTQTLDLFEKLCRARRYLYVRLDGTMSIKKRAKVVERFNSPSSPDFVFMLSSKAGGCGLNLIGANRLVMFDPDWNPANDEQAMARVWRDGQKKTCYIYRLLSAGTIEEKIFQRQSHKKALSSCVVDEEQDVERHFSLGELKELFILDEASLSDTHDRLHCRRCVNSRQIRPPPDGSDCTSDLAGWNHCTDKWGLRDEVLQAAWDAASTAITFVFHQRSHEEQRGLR

[2] = biological target: T2, Replicative DNA helicase DnaB (Mycobacterium tuberculosis, UniProt P9WMR3); assay: DnaB intein splicing inhibitors, dose response, biochemical, cell-free fluorescence (AID 449749); type: functional
T2 sequence (P9WMR3 whole entry): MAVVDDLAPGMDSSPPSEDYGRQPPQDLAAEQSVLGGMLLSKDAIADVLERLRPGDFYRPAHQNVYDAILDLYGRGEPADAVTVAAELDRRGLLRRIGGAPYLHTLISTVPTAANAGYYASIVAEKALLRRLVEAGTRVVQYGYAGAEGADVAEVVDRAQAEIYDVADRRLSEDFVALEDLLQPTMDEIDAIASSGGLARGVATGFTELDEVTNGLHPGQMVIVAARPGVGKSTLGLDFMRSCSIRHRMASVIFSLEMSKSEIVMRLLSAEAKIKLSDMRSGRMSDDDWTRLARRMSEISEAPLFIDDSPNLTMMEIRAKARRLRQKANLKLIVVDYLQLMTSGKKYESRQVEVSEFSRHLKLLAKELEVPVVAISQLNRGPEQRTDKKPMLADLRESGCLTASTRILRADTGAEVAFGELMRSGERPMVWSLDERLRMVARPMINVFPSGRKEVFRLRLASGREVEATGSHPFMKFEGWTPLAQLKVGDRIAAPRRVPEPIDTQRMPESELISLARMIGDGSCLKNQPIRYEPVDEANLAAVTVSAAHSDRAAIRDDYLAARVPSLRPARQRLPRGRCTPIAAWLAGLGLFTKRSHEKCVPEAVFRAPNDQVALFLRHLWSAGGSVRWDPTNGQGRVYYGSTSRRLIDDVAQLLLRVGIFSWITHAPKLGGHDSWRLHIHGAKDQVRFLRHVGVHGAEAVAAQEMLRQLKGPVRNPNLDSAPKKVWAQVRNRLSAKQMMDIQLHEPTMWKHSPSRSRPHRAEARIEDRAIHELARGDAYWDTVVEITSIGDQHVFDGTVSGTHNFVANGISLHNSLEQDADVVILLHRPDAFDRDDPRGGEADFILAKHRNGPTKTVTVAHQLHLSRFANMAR

[3] = biological target: T3, Sentrin-specific protease 8 (Homo sapiens, UniProt Q96LD8); type: functional
T3 sequence (Q96LD8 whole entry): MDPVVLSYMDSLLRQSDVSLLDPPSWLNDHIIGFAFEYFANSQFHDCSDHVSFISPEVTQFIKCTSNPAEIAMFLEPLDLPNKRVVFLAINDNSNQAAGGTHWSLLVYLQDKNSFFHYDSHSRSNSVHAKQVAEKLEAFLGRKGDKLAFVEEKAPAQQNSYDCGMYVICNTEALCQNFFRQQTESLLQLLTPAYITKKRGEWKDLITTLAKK

Protein RecA = biological target: T4, Protein RecA (Mycobacterium tuberculosis, UniProt P9WHJ3); assay: Fluorescence Cell-Free Homogeneous Dose Retest to Identify Inhibitors of RecA-Intein Splicing Activity. [Related pubchem assays (depositor defined):AID2097, AID2223, AID489010, AID492950]; type: functional
T4 sequence (P9WHJ3 whole entry): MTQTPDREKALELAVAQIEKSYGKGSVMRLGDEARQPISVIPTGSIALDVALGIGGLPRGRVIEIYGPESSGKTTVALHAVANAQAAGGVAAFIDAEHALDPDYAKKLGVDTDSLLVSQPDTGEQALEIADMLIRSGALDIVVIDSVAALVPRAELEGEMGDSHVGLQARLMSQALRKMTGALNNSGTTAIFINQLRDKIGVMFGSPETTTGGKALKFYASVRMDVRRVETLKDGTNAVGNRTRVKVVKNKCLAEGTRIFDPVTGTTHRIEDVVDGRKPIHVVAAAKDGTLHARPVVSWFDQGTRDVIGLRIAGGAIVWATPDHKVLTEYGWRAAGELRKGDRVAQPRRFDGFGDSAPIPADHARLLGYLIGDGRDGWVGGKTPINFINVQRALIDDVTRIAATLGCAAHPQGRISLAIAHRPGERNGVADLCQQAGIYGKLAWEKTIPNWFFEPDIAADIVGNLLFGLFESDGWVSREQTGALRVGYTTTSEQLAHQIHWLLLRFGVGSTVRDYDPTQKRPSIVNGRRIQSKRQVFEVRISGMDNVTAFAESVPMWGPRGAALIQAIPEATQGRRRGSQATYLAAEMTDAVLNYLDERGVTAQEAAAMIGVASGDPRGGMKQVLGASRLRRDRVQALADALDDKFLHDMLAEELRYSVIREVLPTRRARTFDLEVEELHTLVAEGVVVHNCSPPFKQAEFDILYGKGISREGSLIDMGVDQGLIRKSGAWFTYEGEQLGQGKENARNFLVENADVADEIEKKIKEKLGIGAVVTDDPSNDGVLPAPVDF

[4] = biological target: T3, Sentrin-specific protease 8; type: functional; remark: listed apart in the source
Protein skinhead-1 = biological target: T5, Protein skinhead-1 (Caenorhabditis elegans, UniProt P34707); type: functional
T5 sequence (P34707 whole entry): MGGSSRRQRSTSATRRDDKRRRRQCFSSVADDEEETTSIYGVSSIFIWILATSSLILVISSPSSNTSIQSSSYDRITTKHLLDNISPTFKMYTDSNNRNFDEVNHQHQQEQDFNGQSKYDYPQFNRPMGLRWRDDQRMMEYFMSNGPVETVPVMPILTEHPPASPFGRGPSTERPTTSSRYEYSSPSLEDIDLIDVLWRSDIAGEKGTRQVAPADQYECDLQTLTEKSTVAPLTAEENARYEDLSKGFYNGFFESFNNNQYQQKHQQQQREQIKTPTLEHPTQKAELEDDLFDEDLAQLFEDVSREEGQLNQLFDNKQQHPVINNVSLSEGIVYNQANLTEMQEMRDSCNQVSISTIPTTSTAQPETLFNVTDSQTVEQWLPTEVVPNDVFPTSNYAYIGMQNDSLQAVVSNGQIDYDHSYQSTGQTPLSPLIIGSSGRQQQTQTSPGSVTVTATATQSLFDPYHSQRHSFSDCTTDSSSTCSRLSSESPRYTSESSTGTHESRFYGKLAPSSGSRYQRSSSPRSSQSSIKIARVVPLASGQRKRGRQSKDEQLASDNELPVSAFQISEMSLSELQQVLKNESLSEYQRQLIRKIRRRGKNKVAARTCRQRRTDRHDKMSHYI

[5] = growth inhibition of yeast DHODH-expressing 3D7 parasites – SYBR Green, dry powder samples, dose response (AID 1159570); type: functional, cell-based;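 note: parasite growth measured after 72 hours of compound exposure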
[6] = growth inhibition of PfATP4-mutant resistant parasites – NITD609-resistant line, SYBR Green, dry powder, dose response (AID 1159571); type: functional, cell-based;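 note: parasites synchronized at ring stage by sorbitol before testing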
[7] = P. falciparum Dd2 growth inhibitors, dose response, SYBR Green, cherry-picked samples (AID 1159567); type: functional, cell-based
[8] = Dd2 malaria parasite growth inhibition potency – SYBR Green, dry powder samples, dose response (AID 1159566); type: functional, cell-based;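 note: potency for growth inhibition with lower SYBR green DNA signal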
[9] = blockers of bursicon-stimulated LGR2 cAMP reporter – cell-based, HEK293, CRE-luciferase reporter, cherry pick, set 2, dose response (AID 743343); type: functional;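 note: transfected cells were stimulated with diluted bursicon conditioned medium after compound addition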
[10] = blockade of melanocortin 4 receptor signaling – cell-based, plate reader, cherry pick, counter-screen for LGR2 antagonist project, dose response (AID 743444); type: functional;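 note: transfected HEK 293 cells stimulated with alpha-MSH peptide; potency of inhibitors of the alpha-MSH evoked signal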
[11] = viability loss in HEK293 cells – cell-based, plate reader, cherry-picked samples, cytotoxicity control, dose response (AID 743446); type: functional
[12] = toxicity toward HepG2 liver cells – cell-based, plate reader, cherry-pick, antagonist series, cytotoxicity control, dose response (AID 743416); type: functional
[13] = A549 cell cytotoxicity, dose response, cytotoxicity control, plate reader, cherry-pick, antagonist series (AID 743412); type: functional, cell-based

CCN(CC)CCn1c2ccc(F)cc2c2nc(C)sc21
AC50 [1]: 20.9 µM (active)

Cc1n[nH]c(O)c1C(c1cc(Br)ccc1O)c1c(C)n[nH]c1O
AC50 [2]: 0.347 µM (active)
IC50 [3]: 34 µM (active)
EC50 (Protein RecA): 0.275 µM (active)
IC50 [4]: 23 µM (active)

COC(=O)CCCC1=CC2=CC(=O)C(C)(OC(=O)c3cccs3)C(=O)C2=CN1CC(C)C (centres undefined)
IC50 [3]: 7.62 µM (active)
IC50 (Protein skinhead-1): > 100 µM (inactive)
IC50 [4]: 11.1 µM (active)

O=[N+]([O-])c1ccc(C=NN2CCOCC2)s1
IC50 [3]: 49 µM (active)
IC50 [4]: 31.9 µM (active)

C[C@@H]1CN([C@@H](C)CO)C(=O)c2cccc(NC(=O)Nc3ccccc3)c2O[C@@H]1CN(C)C(=O)Nc1ccccc1
AC50 [5]: 1.06 µM (active)
AC50 [6]: 0.216 µM (active)
AC50 [7]: 0.37 µM (active)
AC50 [8]: 0.204 µM (active)

C[C@@H]1CN([C@H](C)CO)C(=O)c2cccc(NC(=O)Nc3ccc(C(F)(F)F)cc3)c2O[C@@H]1CN(C)CC1CCCCC1
AC50 [9]: 21.7 µM (active)
AC50 [10]: 7.5 µM (active)
AC50 [11]: 14 µM (active)
AC50 [12]: 9.17 µM (active)
AC50 [13]: 7.8 µM (active)

From ChEMBL document CHEMBL1201862, “PubChem BioAssay data set” (2004)
